These results are taken from patent US9540376B2, “Hexahydrodiazepinoquinolines carrying a substituted alkyl radical” (priority 2014, dated 2017).

Assay type in all cases: cell-based
In assay [1] the target is T1, human 5-HT2A receptor (Homo sapiens, UniProt P28223).
T1 construct: expressed in transfected cells; host or cells: CHO-K1
The assay can be described thus: Human 5-HT2A functional assay (calcium mobilisation in CHO-K1 cells). The note with it: for EC50: potency in functional assay, agonism (first addition), calcium mobilisation; for Emax: CHO-K1, read-out: % efficacy (5-HT2A); for Selectivity (based on agonism) EC50 5-HT2A/EC50 5-HT2C: ratio EC50 5-HT2A/EC50 5-HT2C. How it is done: 2. Human 5-HT2A Functional Assay
Cells were seeded into sterile black 384-well plates with clear bottom at 25,000 cells/well in a volume of 25 μl and grown for 5-6 hours at 37° C., in 5% CO2 in tissue culture medium (“Ultra CHO” by LONZA), containing 1% dialysed FCS and 50 μg/ml gentamicin (Invitrogen). After this incubation, medium was replaced by a serum free version of the same tissue culture medium followed by incubation overnight at 37° C. and in 5% CO2. Cells were then loaded with a fluorescent calcium-sensitive dye in the presence of 0.07% probenecid for an hour at 37° C., according to the manufacturer's protocol (Ca5-Assay Kit, Molecular Devices), followed by an additional 60 min incubation at room temperature. […] The relative efficacy of the compounds was calculated as a percentage of the maximal effect induced by serotonin alone (defined as 100%). To determine EC50/IC50 values, concentration-response curves were fitted using a four-parameter logistic equation (IDBS Biobook™). Kb values were calculated from IC50 values, according to Cheng & Prusoff.
A general note: A change in cytosolic calcium serves as a functional read-out for many receptors and channels.

Assay [2] addresses T2, human 5-HT2B receptor (Homo sapiens, UniProt P41595).
T2 construct: expressed in transfected cells; host or cells: CHO-FlpIn
The assay can be described thus: Human 5-HT2B functional assay (calcium mobilisation in CHO-FlpIn cells). The note with it: for EC50: potency in functional assay, agonism (first addition), calcium mobilisation; for Selectivity (based on agonism) EC50 5-HT2B/EC50 5-HT2C: ratio EC50 5-HT2B/EC50 5-HT2C; for Emax: read-out: % efficacy (5-HT2B), relative efficacy vs maximal effect of serotonin alone (100%). How it is done: 3. Human 5-HT2B Functional Assay
Cells were seeded into sterile black 384-well plates with clear bottom at 30,000 cells/well in a volume of 25 μl and grown overnight at 37° C., in 5% CO2 in tissue culture medium (“CHO-S-SFM II” by Invitrogen), containing 1% dialysed FCS and 50 μg/ml gentamicin (Invitrogen). On the next morning, medium was replaced by a serum free version of the same tissue culture medium for a further incubation for 4 hours at 37° C. and in 5% CO2. Cells were then loaded with a fluorescent calcium-sensitive dye in the presence of 0.07% probenecid for an hour at 37° C., according to the manufacturer's protocol (Ca5-Assay Kit, Molecular Devices), followed by an additional 60 min incubation at room temperature. Serial compound dilutions (final concentrations of 10^−10 to 10^−5M, prepared in HBSS+50 mM HEPES) were first added to the cells alone (“first addition” to assess agonism on the 5-HT2B receptor), then after 8 min, serotonin was added to the same wells at a final concentration of 10^−8 M (“second addition” to see potential antagonistic effect) and the maximal calcium response was determined using a FLIPR® Tetra instrument (Molecular Devices) in each of the two steps. The relative efficacy of the compounds was calculated as a percentage of the maximal effect induced by serotonin alone (defined as 100%). To determine EC50/IC50 values, concentration-response curves were fitted using a four-parameter logistic equation (IDBS Biobook™). Kb values were calculated from IC50 values, according to Cheng & Prusoff.

Assay [3] addresses T3, 5-HT2C receptor (Homo sapiens, UniProt P28335).
T3 construct: host or cells: U2OS
Briefly: Human 5-HT2C functional assay (beta-arrestin2 recruitment, U2OS_HTR2C_β-Arrestin cells). The settings on record: for EC50: potency in functional assay, beta-arrestin2 recruitment, 1.5 h incubation; for % efficacy (5-HT2C): relative efficacy vs 10 μM 5-HT or maximal 5-HT effect (100%); for Emax: read-out: % efficacy (5-HT2C), relative efficacy vs 10 μM 5-HT or maximal 5-HT effect (100%). How it is done: 1. Human 5-HT2C Functional Assay
The functional activity of compounds of formula I was assayed by incubation with U2OS_HTR2C_β-Arrestin cells (DiscoverX, 93-0289C3) to induce beta-arrestin2 recruitment to the 5-HT2C receptor. The agonist-induced recruitment and proximity of the receptor and beta-arrestin2 leads to complementation and formation of active β-galactosidase. The enzyme complementation results in enzyme activity, which is measured following the termination of the agonist incubation using DiscoveRx's detection reagent, which contains a chemiluminescent substrate which produces a high intensity signal. Cells were plated and a medium-change to a 1% serum containing medium was performed 24 h later. The next day, test compounds were added and incubated for 1.5 h before addition of detection reagent.
The response produced was measured and compared with the response produced by 10 [mu]M 5-HT or the maximal effect induced by 5-HT (defined as 100%) to which it was expressed as a percentage response (relative efficacy).

Bounds are passed on as bounds.

T1 sequence (P28223 whole entry): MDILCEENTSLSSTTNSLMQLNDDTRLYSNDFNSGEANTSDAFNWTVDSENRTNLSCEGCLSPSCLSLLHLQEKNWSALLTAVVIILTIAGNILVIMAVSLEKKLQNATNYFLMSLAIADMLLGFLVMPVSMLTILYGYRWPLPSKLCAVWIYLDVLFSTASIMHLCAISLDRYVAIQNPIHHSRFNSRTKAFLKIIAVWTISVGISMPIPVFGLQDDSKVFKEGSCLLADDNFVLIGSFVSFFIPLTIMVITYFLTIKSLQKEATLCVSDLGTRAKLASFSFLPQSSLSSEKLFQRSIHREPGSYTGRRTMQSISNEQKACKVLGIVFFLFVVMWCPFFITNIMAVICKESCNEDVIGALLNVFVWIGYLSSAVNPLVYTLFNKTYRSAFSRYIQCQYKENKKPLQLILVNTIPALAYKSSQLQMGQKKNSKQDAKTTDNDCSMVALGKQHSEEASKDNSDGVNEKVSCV
T2 sequence (P41595 whole entry): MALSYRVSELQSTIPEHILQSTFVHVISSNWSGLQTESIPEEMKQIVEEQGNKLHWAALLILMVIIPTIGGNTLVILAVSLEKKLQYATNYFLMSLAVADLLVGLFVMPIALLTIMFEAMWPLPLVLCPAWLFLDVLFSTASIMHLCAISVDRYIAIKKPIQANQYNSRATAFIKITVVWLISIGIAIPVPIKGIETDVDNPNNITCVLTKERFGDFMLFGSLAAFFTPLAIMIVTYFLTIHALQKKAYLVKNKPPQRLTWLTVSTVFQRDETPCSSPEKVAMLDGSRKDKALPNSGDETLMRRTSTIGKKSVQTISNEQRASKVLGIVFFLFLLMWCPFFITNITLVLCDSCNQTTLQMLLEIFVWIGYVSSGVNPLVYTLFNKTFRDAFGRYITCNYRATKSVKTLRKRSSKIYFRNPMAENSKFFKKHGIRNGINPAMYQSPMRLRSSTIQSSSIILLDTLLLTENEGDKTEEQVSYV
T3 sequence (P28335 33-458): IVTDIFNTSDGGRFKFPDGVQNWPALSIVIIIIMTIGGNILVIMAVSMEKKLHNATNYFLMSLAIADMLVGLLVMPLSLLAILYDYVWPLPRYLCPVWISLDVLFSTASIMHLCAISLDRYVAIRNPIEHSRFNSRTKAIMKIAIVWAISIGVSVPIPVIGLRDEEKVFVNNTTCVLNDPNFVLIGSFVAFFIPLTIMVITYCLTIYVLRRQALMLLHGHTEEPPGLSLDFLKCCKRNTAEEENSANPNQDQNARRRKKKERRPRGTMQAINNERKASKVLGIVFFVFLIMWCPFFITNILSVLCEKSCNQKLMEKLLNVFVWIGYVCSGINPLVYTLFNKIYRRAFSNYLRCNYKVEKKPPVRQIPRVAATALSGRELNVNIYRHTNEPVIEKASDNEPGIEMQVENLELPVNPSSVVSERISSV
T3 sequence (P32121 whole entry partner): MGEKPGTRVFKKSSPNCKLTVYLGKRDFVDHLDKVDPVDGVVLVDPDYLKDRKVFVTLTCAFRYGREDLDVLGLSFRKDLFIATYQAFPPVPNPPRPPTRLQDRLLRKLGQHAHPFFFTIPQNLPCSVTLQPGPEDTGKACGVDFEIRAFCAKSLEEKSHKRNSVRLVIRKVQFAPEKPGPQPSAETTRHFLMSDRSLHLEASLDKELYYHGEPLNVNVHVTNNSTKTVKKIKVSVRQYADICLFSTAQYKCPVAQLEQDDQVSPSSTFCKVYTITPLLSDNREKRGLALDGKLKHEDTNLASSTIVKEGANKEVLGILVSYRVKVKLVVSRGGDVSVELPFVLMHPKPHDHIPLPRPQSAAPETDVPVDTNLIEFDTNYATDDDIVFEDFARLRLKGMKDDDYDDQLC

With `CC1CNCc2cccc3c2N1CCC3C(F)F` (single isomer, unassigned) [Isomer 5.D, 8-(difluoromethyl)-4-methyl-2,3,4,6,7,8-hexahydro-1H-[1,4]diazepino[6,7,1-ij]quinoline], the values for the concentration giving a half-maximal response (EC50) in assay [1] (listed as 5.D), in assay [2] and in assay [3] were above 10 µM, above 10 µM and 0.2 to 1 µM, respectively. Also, in assay [3] (listed as 5.D), the “% efficacy (5-HT2C)” value amounted to 84%.
For `CC1CNCc2cccc3c2N1CCC3C(F)F` (centres unmarked) [Example 5, 8-(Difluoromethyl)-4-methyl-2,3,4,6,7,8-hexahydro-1H-[1,4]diazepino[6,7,1-ij]quinoline], the figures for the EC50 in assay [1], in assay [2] and in assay [3] were above 10 µM, above 10 µM and 0.02 to 0.2 µM, respectively. The Emax in assay [3] is 95%.
With `CC1CNCc2cccc3c2N1CCC3C(F)(F)F` (single isomer, unassigned) [Isomer 4.D, 4-methyl-8-(trifluoromethyl)-2,3,4,6,7,8-hexahydro-1H-[1,4]diazepino[6,7,1-ij]quinoline], the results for the EC50 in assay [1] (listed as 4.D), in assay [2] and in assay [3] were above 10 µM, 0.2 to 1 µM and 0.2 to 1 µM, respectively. For the same compound, the “Selectivity (based on agonism) EC50 5-HT2B/EC50 5-HT2C” value in assay [2] (listed as 4.D) is reported as 2. Besides, in assay [2] (relative efficacy vs maximal effect of serotonin alone (100%)), the “% efficacy (5-HT2B)” value is listed as 30%. For the same compound, the “% efficacy (5-HT2C)” value in assay [3] (listed as 4.D) is reported as 86%.
In the case of `CC1CNCc2cccc3c2N1CCC3C(F)(F)F` (centres unmarked) [Example 4, 4-Methyl-8-(trifluoromethyl)-2,3,4,6,7,8-hexahydro-1H-[1,4]diazepino[6,7,1-ij]quinoline], the concentration for a half-maximal effect (EC50) (commonly the concentration needed to bring the measured effect to its halfway point) in assay [1] was above 10 µM; in assay [2], above 10 µM; in assay [3] it was 0.02 to 0.2 µM. Moreover, the Emax in assay [3] came to 104%.
Regarding `CC1CNCc2cccc3c2N1CCC3C(F)(F)F` (single isomer, unassigned) [Isomer 4.C, 4-methyl-8-(trifluoromethyl)-2,3,4,6,7,8-hexahydro-1H-[1,4]diazepino[6,7,1-ij]quinoline], in assay [1], the Emax worked out at 24%, the EC50 is 0.02 to 0.2 µM and the “Selectivity (based on agonism) EC50 5-HT2A/EC50 5-HT2C” value is on record as 2. In addition, in assay [2], the EC50 lay in the range of 0.02 to 0.2 µM and the Emax is 44%. In addition, the “Selectivity (based on agonism) EC50 5-HT2B/EC50 5-HT2C” value in assay [2] (listed as 4.C) came to 12. The compound also came in with an EC50 in assay [3] below 0.02 µM. Further, the “% efficacy (5-HT2C)” value in assay [3] (listed as 4.C) was determined as 101%.
Turning to `CC1CNCc2cccc3c2N1CCC3C(F)F` (single isomer, unassigned) [Isomer 5.B, 8-(difluoromethyl)-4-methyl-2,3,4,6,7,8-hexahydro-1H-[1,4]diazepino[6,7,1-ij]quinoline], the 50% effective concentration (EC50) in assay [1] is above 10 µM; in assay [2], above 10 µM; in assay [3], 0.02 to 0.2 µM. In addition, the “% efficacy (5-HT2C)” value in assay [3] (listed as 5.B) is listed as 110%.
Turning to `CC1CNCc2cccc3c2N1CCC3C(F)(F)F` (single isomer, unassigned) [Isomer 4.A, 4-methyl-8-(trifluoromethyl)-2,3,4,6,7,8-hexahydro-1H-[1,4]diazepino[6,7,1-ij]quinoline], the EC50 is above 10 µM in assay [1], above 10 µM in assay [2] and below 0.02 µM in assay [3]. For the same compound, the Emax in assay [3] was determined as 101%.
For the compound `COCC1CCN2c3c(cccc31)CNCC2C` (centres unmarked) [Example 9, 8-(Methoxymethyl)-4-methyl-2,3,4,6,7,8-hexahydro-1H-[1,4]diazepino[6,7,1-ij]quinoline], the half-maximal effective concentration (EC50) in assay [1] is above 10 µM; in assay [2], above 10 µM; in assay [3] it was 0.2 to 1 µM. Also, the Emax in assay [3] amounted to 82%.
On to `CC1CNCc2cccc3c2N1CCC3C(F)F` (single isomer, unassigned) [Isomer 5.C, 8-(difluoromethyl)-4-methyl-2,3,4,6,7,8-hexahydro-1H-[1,4]diazepino[6,7,1-ij]quinoline], for which the EC50 in assay [1] (listed as 5.C) was above 10 µM; in assay [2], above 10 µM; in assay [3], 0.2 to 1 µM. Further, the “% efficacy (5-HT2C)” value in assay [3] (listed as 5.C) was found to be 89%.
On to `CCOCC1CCN2c3c(cccc31)CNCC2C` (centres unmarked) [Example 8, 8-(Ethoxymethyl)-4-methyl-2,3,4,6,7,8-hexahydro-1H-[1,4]diazepino[6,7,1-ij]quinoline], for which the 50% effective concentration (EC50) in assay [1] was above 10 µM; in assay [2], above 10 µM; in assay [3], 0.2 to 1 µM. Moreover, in assay [3], the Emax is 93%.
Regarding `CC1CNCc2cccc3c2N1CCC3C(F)(F)F` (single isomer, unassigned) [Isomer 4.B, 4-methyl-8-(trifluoromethyl)-2,3,4,6,7,8-hexahydro-1H-[1,4]diazepino[6,7,1-ij]quinoline], the EC50 is above 10 µM in assay [1] (listed as 4.B), above 10 µM in assay [2] and 0.02 to 0.2 µM in assay [3]. In assay [3] (listed as 4.B), the “% efficacy (5-HT2C)” value stood at 87%.
In the case of `CC1CNCc2cccc3c2N1CCC3C(F)F` (single isomer, unassigned) [Isomer 5.A, 8-(difluoromethyl)-4-methyl-2,3,4,6,7,8-hexahydro-1H-[1,4]diazepino[6,7,1-ij]quinoline], in assay [1], the Emax is 21%, the EC50 was below 0.02 µM and the “Selectivity (based on agonism) EC50 5-HT2A/EC50 5-HT2C” value is 0.5. In addition, in assay [2], the EC50 lay within 0.2 to 1 µM, the “Selectivity (based on agonism) EC50 5-HT2B/EC50 5-HT2C” value was 20 and the Emax turned out to be 36%. This compound also showed an EC50 in assay [3] below 0.02 µM. Also, the “% efficacy (5-HT2C)” value in assay [3] (listed as 5.A) is reported as 109%.
For `CC1CNCc2cccc3c2N1CCC3CF` (centres unmarked) [Example 7, 8-(Fluoromethyl)-4-methyl-2,3,4,6,7,8-hexahydro-1H-[1,4]diazepino[6,7,1-ij]quinoline], the results for the EC50 in assay [1], in assay [2] and in assay [3] were above 10 µM, above 10 µM and 0.02 to 0.2 µM, respectively. In assay [3], the Emax was 107%.
